From patent US6303596A, “Use of taurolidine for treatment of leukemias” (priority 2000, dated 2001)
Read-outs that look alike come from different tables or passages of the source.

How the values were obtained:
Format in all cases: cell-based, human
[1] = system: PBMC; experiment: TUNEL / propidium iodide flow cytometry, PBMC all cells, culture medium; details: PBMC
Method: (§1) FIG. 14A and FIG. 14B are terminal deoxytransferase-mediated deoxyuridine-triphosphate-biotin nick end labeling assay (TUNEL) analyses of control cells and taurolidine-treated PBMC, respectively. Cells were incubated with 100 μg/ml taurolidine for six hours and processed for TUNEL analysis as given below. Parallel samples were stained with FITC-conjugated anti-CD14 and propidium iodide (PI) as described below. Ten thousand events were recorded per sample. TUNEL signal (x-axis) is a measure of DNA fragmentation, which FSC (y-axis) is related to cell size. TUNEL-negative lymphocytes are bounded by the rectangle R1, while TUNEL-negative monocytes (CD14 positive cells) are bounded by the rectangle R2. The vertical line indicates demarcation between TUNEL-negative and TUNEL-positive cells. There were minimal numbers of PI-positive cells in the six hour samples (see Table IV).
(§2) In the second method, DNA fragmentation was detected via TUNEL assay according to the manufacturer's instructions. With this methodology, 2×10^6 cells were fixed with 2% paraformaldehyde, permeabilized with 0.1% Triton X-100/0.1% citrate, incubated at 37° C. with terminal deoxynucleotidyl transferase and FITC-dUTP, rinsed and analyzed by flow cytometry. Enhanced FITC signal indicates apoptosis-specific DNA fragmentation. Gavriali, et al, "Identification of programmed cell death in situ via specific labeling of nuclear DNA fragmentation," J Cell Biol 119:493 (1992). Parallel aliquots of unfixed cells were treated with PI and FITC-conjugated anti-CD14 and analyzed by flow cytometry, in order to identify cells with permeable cell membranes (since PI binds to DNA but is excluded from cells with intact plasma membranes) and also to determine the cell-specificity of the apoptotic signal.
(§3) A Becton-Dickinson FACSCalibur instrument was used for flow cytometric analysis of cells. Assessment of cell diameter (forward scatter; FCS) and granularity (side scatter; SSC).was carried out on unfixed cells. Discrimination between lymphocytes and monocytes was made possible by their characteristic differences in FSC and SSC, and confirmed by staining monocytes with FITC-labeled anti-CD14 antibodies and lymphocytes with a combination of FITC-conjugated anti-CD3 and PE-conjugated anti-CD19. After incubation with taurolidine (with or without concomitant LPS treatment), cells were rinsed twice in phosphate-buffered saline containing 0.1% bovine serum albumin (PBSA) and 1×10^6 cells were resuspended in 0.1 ml PBSA. After 5 μl FITC-conjugated anti-CD14 was added, cells were incubated in the dark on ice for 15 minutes and then centrifuged at 250×g. Cells were resuspended in 500 μl PBSA containing 5 μg/ml PI and subjected to flow cytometry.
(§4) Consequently, TUNEL analysis was performed on PBMC at 3, 6, or 24 hours after treatment with 25 to 100 μg/ml taurolidine. Aliquots of harvested cells were also labeled with FITC-conjugated anti-CD14 antibodies and PI, which allowed identification of monocytes (CD14-positive cells) and cells with damaged cell membranes (PI-positive cells). […] Thus, nearly 75% of the monocytes were TUNEL-positive following treatment with 100 μg/ml taurolidine for six hours. Confirmation that the TUNEL-positive cells were monocytes was obtained by staining with FITC-conjugated anti-CD14.
(§5) ^a Analysis by flow cytometry after staining cells with FITC-conjugated
(§6) anti-CD14 and PI, and processing for TUNEL. Data are mean ± SD of two

[2] = as above; details: human, pbmc, PBMC all cells, 6 h, mean ± SD of two experiments, read-out: % Propidium Iodide Positive
Method: as §1, §2, §3, §4, §5, §6

[3] = system: Jurkat cells; experiment: growth rate after taurolidine treatment, Jurkat
Method: FIGS. 9A and 9B depict cell viability and growth rates for Jurkat cell line following taurolidine treatment, in terms of % trypan blue negative cells and % cell number, respectively. Cells were treated with various concentrations of taurolidine for 4 hours in AIM-V+0.01% BCS. After aliquots were collected for LDH assay, the remainder of the culture was rinsed in HBSS and resuspended in RPMI+10% BCS without taurolidine. Counts of trypan blue-negative cells (FIG. 9A), and total cell number (FIG. 9B), were recorded daily thereafter (with the measurement at Day 1 being made immediately after the 4 hour taurolidine treatment). Conditions were: no treatment (open circles); 25 μg/ml taurolidine (closed circles); 50 μg/ml taurolidine (open squares); 100 μg/ml taurolidine (closed squares); and vehicle alone (closed triangles). Doubling times were determined under each condition, and expressed as a percentage of the rate of doubling of untreated cells. These values are located to the right of the growth curves in (FIG. 9B). […]
HL-60 cells treated with 50 μl taurolidine. In these samples, LDH present in the culture medium was 8.3±2.3% of that released by completely lysed cells, compared with 2.3±0.8% measured in control cultures. […] After 4 hour treatment, cells were rinsed and returned to growth medium and monitored for viability and growth over the following 3 days. […]

[4] = system: peripheral blood monocytes; experiment: cell size by flow cytometry (FSC), peripheral blood monocytes; details: taurolidine 6 h
Method: (§7) FIG. 12A, FIG. 12B, FIG. 12C, and FIG. 12D are flow cytometric analyses depicting changes in cell morphology following taurolidine treatment. MM6 and PBMC were treated for three hours with taurolidine, and then treated and untreated control cells were processed for flow cytometry. Monocytes in PBMC samples were identified by staining with FITC-conjugated anti-CD14, and lymphocytes by FITC-conjugated anti-CD3 and PE-conjugated anti-CD19. FIG. 12A represents untreated MM6 cells; FIG. 12B represents MM6 cells treated with 50 μg/ml taurolidine; FIG. 12C represents untreated PBMC; and FIG. 12D represents PBMC treated with 75 μg/ml taurolidine. M=monocytes; L=lymphocytes.
as §3, with “After 5 μl FITC-conjugated anti-CD14 was added, cells were incubated in the dark on ice for 15 minutes and then centrifuged at 250×g. Cells were resuspended in 500 μl PBSA containing 5 μg/ml PI and subjected to flow cytometry.” left out

[5] = system: GM5387; experiment: TUNEL / propidium iodide flow cytometry, GM5387; details: GM5387, 6 hours after treatment
Method: as §2
In another study, TUNEL assays were performed on all cell lines 6 hours after cells were initially exposed to taurolidine (cells were treated for 4 hours, rinsed, and then incubated for 2 more hours before TUNEL assay was performed).
. Taurolidine and anisomycin induced apoptosis in MM6, HL-60, and Jurkat cells (Table VIII). MM6 and HL-60 cells were similarly effected, with >80% TUNEL-positive cells after 6 hours. […]
Data are percent of total cell-size events, and are expressed as mean ± […]

[6] = system: MM6 cells; experiment: cell morphology / size (microscopy, flow cytometry FSC and SSC), MM6
Method: as §7
as §3, with “After 5 μl FITC-conjugated anti-CD14 was added, cells were incubated in the dark on ice for 15 minutes and then centrifuged at 250×g. Cells were resuspended in 500 μl PBSA containing 5 μg/ml PI and subjected to flow cytometry.” left out

O=S1(=O)CCN(CN2CCS(=O)(=O)NC2)CN1 [taurolidine, 4,4'-methylenebis(perhydro-1,2,4-thiadiazin 1,1-dioxide)]
TUNEL-positive PBMC ([1]; 100 μg/ml, 6 h): substantial population of TUNEL-positive cells | TUNEL-positive PBMC ([1]; 3 h incubation): relatively few | PI-positive cells versus control ([1]; taurolidine, 6 h): equivalently low levels of PI-positive cells | cytotoxicity at 6 h ([2]; 25 μg/ml): 9 ± 3.2% | cytotoxicity at 6 h ([2]; 50 μg/ml): 12.2 ± 5.6% | cytotoxicity at 6 h ([2]; 100 μg/ml): 9 ± 3.5% | sensitivity of cell growth among cell lines [3]: least affected | decrease in FSC [4]: approximately 30% | DNA fragmentation (TUNEL positivity) [5]: did not demonstrate evidence for fragmentation of DNA | cell size by microscopy ([6]; MM6, 100 μg/ml taurolidine, 4 h): smaller than control cells | decrease in FSC ([6]; MM6, taurolidine 3 h): approximately 30%
